Values quoted from earlier work in US12234492B2, “Microorganism for fermentative production of 2-phenylethanol from gaseous substrates” (LanzaTech, Inc., priority 2020, dated 2025).
Several values for one entry are separate records, joined by “and”; a condition that tells them apart may be missing. Equal values may be shown once.

Legend:
[1] = test system: Enterococcus faecium; conditions: range given jointly for S. aureus and E. faecium; Cone et al. 1990
[2] = test system: Staphylococcus aureus; conditions: range given jointly for S. aureus and E. faecium; Cone et al. 1990

Structure (SMILES): OCCc1ccccc1 [2-PE, 2-phenylethanol]
- growth inhibitory level [1]: 26-43 mM and 3.2-5.3 g/L
- growth inhibitory level [2]: 26-43 mM and 3.2-5.3 g/L
